Reference: PMC11796369, “Genetic and biochemical characterization of a radical SAM enzyme required for post-translational glutamine methylation of methyl-coenzyme M reductase” (mBio, 2025)

Target: T1, MmMgmA (Methanothermobacter marburgensis, UniProt D9PY35)
T1 construct: gene MTBMA_c15540; full-length; E. coli BL21(DE3) from codon-optimised gene in pET28a, reconstituted with 4Fe-4S and cobalamin (structure, kinetics); also TAP-tagged from M. acetivorans (native cobamide, peptide assay)
T1 sequence (D9PY35 1-430): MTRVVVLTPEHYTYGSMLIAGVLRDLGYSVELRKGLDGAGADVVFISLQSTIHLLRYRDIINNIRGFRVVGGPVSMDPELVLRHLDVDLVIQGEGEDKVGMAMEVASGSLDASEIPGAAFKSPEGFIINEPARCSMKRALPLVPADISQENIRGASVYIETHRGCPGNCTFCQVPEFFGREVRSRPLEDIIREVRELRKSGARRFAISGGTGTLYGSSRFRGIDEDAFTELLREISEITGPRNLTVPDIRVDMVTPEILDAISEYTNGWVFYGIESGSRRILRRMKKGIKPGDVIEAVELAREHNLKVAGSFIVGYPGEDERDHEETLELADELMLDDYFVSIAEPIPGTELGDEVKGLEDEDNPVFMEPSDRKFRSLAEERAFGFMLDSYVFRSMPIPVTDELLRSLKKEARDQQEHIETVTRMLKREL
Test: UHPLC-MS of […]'-dAH and SAH
Format: biochemical
Settings: reconstituted enzyme; 500 µM SAM, 200 µM McrA peptide, 2 mM Ti citrate, 250 mM KCl, 50 mM HEPES pH 7.5

In the case of `C[S+](CC[C@H](N)C(=O)O)C[C@H]1O[C@@H](n2cnc3c(N)ncnc32)[C@H](O)[C@@H]1O` (stereo partly shown) [SAM], the “UHPLC-MS of 5'-dAH and SAH” value was “The reconstituted enzyme was highly active”.
